Patent US9266817B2, “Catecholamine derivatives for obesity and neurological disorders” (EMORY UNIVERSITY, priority 2009, dated 2016)

Tests used:
TrkA = target: T1, TrkA (Mus musculus, UniProt Q3UFB7); test: TrkA activation in mouse brain after DOPS (control); format: in vivo; details: wild-type and DBH -/- mice
T1 construct: from tissue; host or cells: mouse brain
Experimental: Mice lacking dopamine β-hydroxylase (DBH) are unable to synthesize noradrenaline (essential for mouse fetal development) or adrenaline and die in utero. Administration of DOPS, which can be converted to noradrenaline in the absence of DBH, rescued DBH −/− mice from dying. Mature DBH −/− mice can live without supplemental of DOPS. […] In wild-type control mice, DOPS induced TrkB activation in a time dependent manner with the maximal effect at 12 hours. In contrast, DOPS-triggered TrkB activation occurred at 1 hour, peaked at 5 hours, and decreased at 12 hours in DBH −/− mice. As a control, TrkA was not activated.

TrkB [1] = target: T2, TrkB (Mus musculus, UniProt P15209, F616A); format: in vivo; details: L-DOPA 50 mg/kg, DOPS 100 mg/kg, 1NMPP1 50 μM
T2 construct: from tissue; host or cells: mouse brain
T2 sequence (P15209 32-821 F616A): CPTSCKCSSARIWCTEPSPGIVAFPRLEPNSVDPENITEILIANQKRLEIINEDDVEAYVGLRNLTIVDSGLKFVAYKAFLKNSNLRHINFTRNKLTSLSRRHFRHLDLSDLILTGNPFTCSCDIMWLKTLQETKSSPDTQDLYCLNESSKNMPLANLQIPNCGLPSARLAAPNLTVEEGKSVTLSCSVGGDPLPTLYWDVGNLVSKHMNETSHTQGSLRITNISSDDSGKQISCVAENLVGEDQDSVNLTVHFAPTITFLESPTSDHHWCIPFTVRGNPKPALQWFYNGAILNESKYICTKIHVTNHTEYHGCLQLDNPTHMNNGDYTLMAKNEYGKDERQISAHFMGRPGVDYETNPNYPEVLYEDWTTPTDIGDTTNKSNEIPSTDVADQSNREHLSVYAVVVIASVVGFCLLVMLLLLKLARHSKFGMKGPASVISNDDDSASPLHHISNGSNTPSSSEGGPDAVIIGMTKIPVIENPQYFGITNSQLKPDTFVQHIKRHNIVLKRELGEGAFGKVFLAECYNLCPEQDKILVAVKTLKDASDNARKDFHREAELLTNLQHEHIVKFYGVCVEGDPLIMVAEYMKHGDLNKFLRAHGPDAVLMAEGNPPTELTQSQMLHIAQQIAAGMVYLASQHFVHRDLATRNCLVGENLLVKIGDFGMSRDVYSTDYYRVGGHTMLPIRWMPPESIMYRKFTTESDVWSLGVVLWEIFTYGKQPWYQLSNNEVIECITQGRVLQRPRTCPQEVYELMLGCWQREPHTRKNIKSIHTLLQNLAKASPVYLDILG
Experimental: The DOPS concentration was 20 mg/ml, the vitamin C concentration was 2 mg/ml, and the benserazide concentration was 5 mg/ml. The vitamin C prevents oxidation of the DOPS, and the benserazide is a peripheral inhibitor of AADC and restricts the production of NE from DOPS to the brain. The compounds were added to a tube, and 20 μl of 10 M HCl was added to each ml of DOPS solution. The appropriate amount of water was added to the tube, and then HCl was added to achieve the desired volume. For example, to make 1 mL of a DOPS solution, 20 mg DOPS, 2 mg vitamin C, and 5 mg benserazide were added to a tube, followed by 980 μL of water and 20 μL of 10 M HCl. The solution was vortexed until all DOPS was dissolved. The DOPS solution was injected subcutaneously in a volume of 50 μl/g of mouse. The appropriate amount of DOPS solution was pipetted into a clean tube, followed by the amount of 10 M NaOH required to exactly neutralize the HCl. The solution was then shaken. The amount of 10 M NaOH is the weight of the mouse in microliters. For example, for a 20 g mouse, pipet 1 ml of the DOPS solution is pipetted into a tube and 20 μL of 10 M NaOH is added. For a 30 g mouse, 1.5 mL of the DOPS solution is pipetted into a tube and 30 μl of 10 M NaOH is added. Two to four month-old TrkBF616A mice were pretreated with 1NMPP1 in drinking water (50 μM) 1 day before L-DOPA (50 mg/kg) or DOPS (100 mg/kg) intraperitoneal injection. At times of 2 hours and 5 hours after drug administration, the L-DOPA or DOPS-treated mice were sacrificed, respectively. The brain lysates were prepared and analyzed by immunoblotting against anti-phospho-TrkB Y816 and TrkA Y794 antibodies.
TrkB F616A mice were pretreated with 1NMPP1 (50 μM) before L-DOPA or DOPS administration.

BDNF = test: Quantitative analysis of BDNF in mouse brain during drug treatment; format: in vivo, mice; details: during the drug treatment
TrkB [2] = format: in vivo
TrkB [3] = target: T3, TrkB (Rattus norvegicus, UniProt Q63604); test: Immunoblotting of TrkB phosphorylation in primary cortical neurons treated with catecholamines; format: cell-based
T3 construct: endogenous in cells; host or cells: primary rat cortical and hippocampal neurons
T3 sequence (Q63604 32-821): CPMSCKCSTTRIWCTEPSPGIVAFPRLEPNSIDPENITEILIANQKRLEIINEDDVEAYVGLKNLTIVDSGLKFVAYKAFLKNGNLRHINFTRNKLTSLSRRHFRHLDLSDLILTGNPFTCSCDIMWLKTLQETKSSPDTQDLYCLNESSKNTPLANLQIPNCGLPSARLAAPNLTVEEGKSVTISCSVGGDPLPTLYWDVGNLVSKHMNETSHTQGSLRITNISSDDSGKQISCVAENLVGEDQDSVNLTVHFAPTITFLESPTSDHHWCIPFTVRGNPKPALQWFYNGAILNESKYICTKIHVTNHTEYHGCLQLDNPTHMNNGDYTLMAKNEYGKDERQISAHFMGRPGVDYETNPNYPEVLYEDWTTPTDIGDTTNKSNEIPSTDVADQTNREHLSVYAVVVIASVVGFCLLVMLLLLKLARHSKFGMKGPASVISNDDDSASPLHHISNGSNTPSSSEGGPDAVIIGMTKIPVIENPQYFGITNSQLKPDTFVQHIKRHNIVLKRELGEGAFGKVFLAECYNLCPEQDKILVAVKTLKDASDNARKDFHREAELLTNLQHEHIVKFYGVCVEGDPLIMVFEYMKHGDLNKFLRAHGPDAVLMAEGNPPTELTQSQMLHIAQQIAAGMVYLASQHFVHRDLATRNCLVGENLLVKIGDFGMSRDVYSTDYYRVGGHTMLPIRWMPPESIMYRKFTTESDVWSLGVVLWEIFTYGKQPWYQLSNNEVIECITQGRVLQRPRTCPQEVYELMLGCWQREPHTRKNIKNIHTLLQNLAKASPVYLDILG
Experimental: Primary cultured rat cortical neurons were prepared as follows. E17 rat pups were decapitated and cortex was extirpated, cross chopped and suspended by pipetting for separation in 5% fetal calf serum (FCS), 5% horse serum (HS) DMEM. The cell suspension was then centrifuged at 250×g for 5 min. This operation was repeated. Cells were seeded into polyethyleneimine-coated 10 cm^2 dishes and 12-well plates including coated-coverslips and incubated at 37° C. in 5% CO2/95% air. After 3 hours, the culture medium was changed to Neurobasal containing B-27 supplement (Invitrogen; Carlsbad, Calif.) and incubated for 4 days. For maintenance, half of the culture medium was changed to fresh Neurobasal/B27 in every 4 days. After 1 week, the dished cultured neurons were ready for use.
To explore whether monoamine neurotransmitters, including catecholamines (see, e.g., FIG. 1), could stimulate TrkB activation, hippocampal neurons were treated with 300 nM of catecholamines, serotonin, and melatonin for 30 min.

TrkB [4] = target: TrkB (Homo sapiens, UniProt Q16620); test: TrkB activation by catecholamines in TrkB-transfected HEK293 cells pretreated with OCT3 inhibitor; format: cell-based; set-up: expressed in transfected cells; host or cells: HEK293; details: 2 μM, 30 minutes pretreatment, catecholamines 15 minutes
Sequence of TrkB (Homo sapiens, UniProt Q16620) (Q16620 32-822, species assumed): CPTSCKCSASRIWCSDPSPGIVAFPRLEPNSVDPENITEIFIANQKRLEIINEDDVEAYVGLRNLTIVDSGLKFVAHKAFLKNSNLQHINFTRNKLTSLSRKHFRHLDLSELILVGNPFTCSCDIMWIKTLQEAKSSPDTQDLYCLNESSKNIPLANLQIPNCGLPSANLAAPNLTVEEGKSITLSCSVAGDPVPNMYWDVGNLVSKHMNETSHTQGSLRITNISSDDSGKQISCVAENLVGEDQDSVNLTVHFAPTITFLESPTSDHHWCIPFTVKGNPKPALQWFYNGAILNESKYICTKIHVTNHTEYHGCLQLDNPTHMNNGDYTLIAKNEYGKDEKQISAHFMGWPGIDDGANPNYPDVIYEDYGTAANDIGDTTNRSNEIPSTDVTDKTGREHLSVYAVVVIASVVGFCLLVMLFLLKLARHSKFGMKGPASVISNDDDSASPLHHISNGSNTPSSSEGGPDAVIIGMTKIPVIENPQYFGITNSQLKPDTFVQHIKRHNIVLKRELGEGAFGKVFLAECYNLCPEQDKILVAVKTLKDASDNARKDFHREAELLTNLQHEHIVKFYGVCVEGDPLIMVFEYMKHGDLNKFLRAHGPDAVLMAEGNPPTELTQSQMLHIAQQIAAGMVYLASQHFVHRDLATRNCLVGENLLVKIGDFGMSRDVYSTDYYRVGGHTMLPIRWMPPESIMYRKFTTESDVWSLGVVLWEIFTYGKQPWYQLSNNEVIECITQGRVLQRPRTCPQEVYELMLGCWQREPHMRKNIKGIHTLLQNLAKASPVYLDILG
Experimental: HEK293 cells were transfected with TrkB and pretreated with the OCT3 inhibitor decynium (2 μM) for 30 minutes, followed by stimulation with catecholamines for 15 minutes. The cell lysates were monitored by immunoblotting with anti-p-TrkB-Y-816. […] An equal amount of TrkB was expressed in each sample (FIG. 22A, lower panel).

T1 sequence (Q3UFB7 34-799): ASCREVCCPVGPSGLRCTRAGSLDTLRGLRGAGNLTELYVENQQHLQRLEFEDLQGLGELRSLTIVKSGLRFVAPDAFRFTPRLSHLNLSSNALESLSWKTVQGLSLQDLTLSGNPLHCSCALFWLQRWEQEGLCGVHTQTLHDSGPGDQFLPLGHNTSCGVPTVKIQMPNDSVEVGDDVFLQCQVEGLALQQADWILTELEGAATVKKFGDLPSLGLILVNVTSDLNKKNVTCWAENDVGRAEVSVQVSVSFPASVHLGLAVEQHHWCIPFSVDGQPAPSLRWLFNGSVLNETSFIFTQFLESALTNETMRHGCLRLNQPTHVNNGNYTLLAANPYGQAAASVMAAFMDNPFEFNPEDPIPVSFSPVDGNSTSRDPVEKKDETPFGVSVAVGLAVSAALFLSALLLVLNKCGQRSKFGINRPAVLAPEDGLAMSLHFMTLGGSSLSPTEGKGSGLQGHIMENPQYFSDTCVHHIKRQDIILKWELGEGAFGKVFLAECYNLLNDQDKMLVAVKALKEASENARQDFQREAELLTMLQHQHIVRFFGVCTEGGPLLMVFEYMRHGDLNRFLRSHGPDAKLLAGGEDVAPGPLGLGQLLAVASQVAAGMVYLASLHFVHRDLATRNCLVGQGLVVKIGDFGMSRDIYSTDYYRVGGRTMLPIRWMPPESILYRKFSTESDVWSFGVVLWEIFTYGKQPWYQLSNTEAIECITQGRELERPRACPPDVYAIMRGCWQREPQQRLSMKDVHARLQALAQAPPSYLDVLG

Effect of OCT3 inhibitor on TrkB activation by catecholamines (TrkB [4])	SMILES	TrkA activation in mouse brain (TrkA)	TrkB tyrosine phosphorylation/activation in mice (TrkB [1])	BDNF in mouse brain (BDNF)	TrkB activation in BDNF -/- cortex (TrkB [2]; BDNF conditional knockout mice, compared to vehicle control)	Time at which TrkB activation occurred (TrkB [2]; DBH -/- mice, intraperitoneal)	Time at which TrkB activation peaked (TrkB [2]; DBH -/- mice, intraperitoneal)	TrkB activation at 12 hours (TrkB [2]; DBH -/- mice, intraperitoneal)	Time of maximal effect on TrkB activation (TrkB [2]; wild-type control mice, intraperitoneal)	TrkB activation in primary cultured neurons (TrkB [3])
	N[C@H](C(=O)O)[C@H](O)c1ccc(O)c(O)c1 [DOPS, dihydroxyphenylserine]	not activated	provoked evident TrkB activation	not significantly altered	strongly triggered TrkB activation	1 h	5 h	decreased	12 h	rapidly induced TrkB activation
failed to inhibit	CCN1/C(=C/c2ccc3ccccc3[n+]2CC)C=Cc2ccccc21.[I-] [decynium]									
